Data from article PMC10741027, “Risk Assessment of Psychotropic Drugs on Mitochondrial Function Using In Vitro Assays” (Biomedicines, 2023).
Where two headings read alike, the source gives them in different places.

How the values were obtained:
[1] = system: HepG2 cells; assay: Glu/Gal assay: cellular ATP (CellTiter-Glo) after 24 h in glucose or galactose media; conditions: for Effect on cell viability / ATP in Glu and Gal media (in words): 24 h incubation, top concentration; for AC50 / minimal effective concentration: Homo sapiens, HepG2, 24 h
[2] = literature values, plasma or serum of adult humans when possible; ref 68-88 (per drug, Table 2 Cmax Reference); cited from earlier work
[3] = system: HepG2 cells; assay: Acute extracellular flux (AEF) assay in intact HepG2 cells (Seahorse XFe96); format: cell-based, human; conditions: Homo sapiens
[4] = system: CI-linked respiration; conditions: read-out: CI-linked respiration IC50, cited from earlier work
[5] = system: CII-linked respiration; conditions: read-out: CII-linked respiration IC50, cited from earlier work
[6] = system: respiratory CI; parameters: method as in PMID 9309697; conditions: human brain cortex; read-out: CI inhibition IC50; cited from earlier work
[7] = system: rPFO permeabilized HepG2 cells; assay: Mitochondrial respiratory complexes in rPFO permeabilized HepG2 cells (Seahorse XF); conditions: for AC50: Homo sapiens, HepG2, read-out: Pyruvate Respiration AC50
[8] = system: rat liver mitochondria (CII-linked respiration); assay: High-resolution respirometry, MMP and ROS in isolated rat liver mitochondria (Oroboros O2k); format: biochemical; conditions: for % MMP / % O2 consumption: basal succinate-driven respiration, normalized to control; for Mode of action on respiration in isolated RLM (in words): CII-linked respiration
Procedure: Mitochondria were isolated from adult Wistar Rat liver. […] The liver was homogenized with 10 passes in a loose-fitting homogenizer, followed by 10 passes in a tight-fitting homogenizer, and filtered through muslin. The tissue homogenate was then centrifuged at 1000× g for 10 min at 4 °C and the supernatants were further centrifuged at 10,000× g for 10 min. The centrifugation steps were repeated, preserving the pellet. […] Protein concentration was determined using the Bradford method with bovine serum albumin as the standard. The Oroboros® Oxygraph-2K (Oroboros Instruments, Innsbruck, Austria) was used to simultaneously analyze high-resolution respirometry and mitochondrial membrane potential (MMP). […] At the beginning of each experiment, the O2k chambers were filled with 2 mL of reaction buffer (200 mM sucrose, 25 mM KCl, 5 mM MgCl2, 4 mM KH2PO4, 5 mM MOPS, pH 7.4) and equilibrated with air at 37 °C. During the experiments, the incubation chambers were kept at constant temperature by Peltier control (±0.001 °C) and the medium was stirred using white PVDF-coated stirrers (750 rpm). […] This was followed by serial additions of the drugs to assess their dose-dependent effect on the MMP and mitochondrial respiration. Injection of RLM results in an uptake of safranin and a corresponding decline in the fluorescence signal.

[9] = HepG2, minimum effective concentration crossing vehicle control threshold, read-out: MEC ATP Production
[10] = HepG2, minimum effective concentration crossing vehicle control threshold, read-out: MEC ECAR
[11] = HepG2, minimum effective concentration crossing vehicle control threshold, read-out: MEC OCR
[12] = HepG2, minimum effective concentration crossing vehicle control threshold, read-out: MEC Reserve Capacity
[13] = HepG2, concentration at which 50% maximum effect is observed, read-out: AC50 ATP Production
[14] = HepG2, concentration at which 50% maximum effect is observed, read-out: AC50 ECAR
[15] = HepG2, concentration at which 50% maximum effect is observed, read-out: AC50 OCR
[16] = HepG2, concentration at which 50% maximum effect is observed, read-out: AC50 Reserve Capacity
[17] = isolated mitochondria, partial inhibition
[18] = HepG2, minimum effective concentration crossing vehicle control threshold, read-out: MEC Proton Leak
[19] = HepG2, concentration at which 50% maximum effect is observed, read-out: AC50 Proton Leak
[20] = HepG2, read-out: AC50 ATP Production
[21] = HepG2, read-out: AC50 Proton Leak
[22] = HepG2, read-out: AC50 Reserve Capacity

SMILES | Cmax [2] [nM] | AC50 ([1]; read-out: Gal AC50) [µM] | minimal effective concentration ([1]; read-out: Gal MEC) [µM] | minimal effective concentration [3, 9] [µM] | minimal effective concentration [3, 11] [µM] | minimal effective concentration [3, 12] [µM] | AC50 [3, 13] [µM] | AC50 [3, 14] [µM] | AC50 [3, 15] [µM] | AC50 [3, 16] [µM] | AC50 ([1]; read-out: Glu AC50) [µM] | minimal effective concentration [3, 18] [µM] | AC50 [3, 19] [µM] | minimal effective concentration ([1]; read-out: Glu MEC) [µM] | other results
CCN1CCCC1CNC(=O)c1cc(S(=O)(=O)CC)c(N)cc1OC (stereo not drawn) [Amisulpride] | 2560 |  |  |  |  |  |  |  |  |  |  |  |  |  | Effect on cell viability / ATP in Glu and Gal media (in words) [1]: did not show any effect on ATP production in any of the media conditions
O=C1CCc2ccc(OCCCCN3CCN(c4cccc(Cl)c4Cl)CC3)cc2N1 [Aripiprazole] | 700 | 9.17 | 5.67 | 3.49 | 2.06 | 0.344 | > 10 | > 10 | > 10 | > 10 |  |  |  |  | minimal effective concentration [3, 10]: 9.2 µM
NC(=O)N1c2ccccc2C=Cc2ccccc21 [Carbamazepine] | 6300 | > 600 | 408 | 165 | 13.1 | 137 | 363 | > 600 | > 600 | > 190 | > 600 | 97 | > 600 |  | IC50 [4, 17]: 353 µM; IC50 [5, 17]: 182 µM
CN(C)CCCN1c2ccccc2Sc2ccc(Cl)cc21 [Chlorpromazine] | 900 | 16.9 | 10.5 | 94.2 | 73.4 | 78.4 | > 100 | > 100 | > 100 | > 100 | 15.9 | 31 | > 100 | 10.7 | IC50 [6]: 400 µM; Most sensitive mechanism / response in permeabilized HepG2 assay (OCR) ([7]; in words): did not show a significant response; IC50 ([4]; pig brain mitochondria): 116 µM; % MMP ([8]; 20 μM): 88%; % O2 consumption ([8]; 20 μM): 111%; % MMP ([8]; 50 μM): 79%; % O2 consumption ([8]; 50 μM): 125%; % MMP ([8]; 100 μM): 72%; % O2 consumption ([8]; 100 μM): 131%; Mode of action on respiration in isolated RLM (in words) [8]: uncoupler of OXPHOS; Mode of action on respiration in isolated RLM (in words) ([8]; listed as chlorpromazine): uncoupler in basal respiration and an ETC inhibitor under uncoupled respiration; IC50 ([8]; CII-linked, succinate + rotenone, stimulated with 0.25 µM CCCP, 50–400 µM, read-out: IC50 uncoupled respiration): 135 µM; ROS production ([8]; uncoupled respiration, increasing concentrations): reduction in the production of ROS; minimal effective concentration [3, 10]: 15.6 µM
CN(C)CCCC1(c2ccc(F)cc2)OCc2cc(C#N)ccc21 (stereo not drawn) [Citalopram] | 100 | > 10 | 7.11 |  |  |  | > 10 | > 10 | > 10 | > 10 | > 10 | 7.17 | > 10 | 4.43 | reduction in cell viability ([1]; 10 µM, both media conditions, 24 h): around 40%
O=C(CCCN1CCC(O)(c2ccc(Cl)cc2)CC1)c1ccc(F)cc1 [Haloperidol] | 20 | 78.6 | 26 |  |  |  |  |  |  |  | 57.5 |  |  | 26.2 | % MMP ([8]; 20 μM): 88%; % O2 consumption ([8]; 20 μM): 85%; % MMP ([8]; 50 μM): 69%; % O2 consumption ([8]; 50 μM): 77%
Nc1nnc(-c2cccc(Cl)c2Cl)c(N)n1 [Lamotrigine] | 4000 | > 100 |  | 14 |  |  | 75.7 | > 100 | > 100 | > 100 | > 100 |  | > 100 |  | Effect on cell viability / ATP in Glu and Gal media (in words) [1]: no cytotoxicity; IC50 [4, 17]: 332 µM; IC50 [5, 17]: 381 µM
Cc1cc2c(s1)Nc1ccccc1N=C2N1CCN(C)CC1 [Olanzapine] | 20 |  |  |  |  |  |  |  |  |  |  |  |  |  | % MMP ([8]; 20 μM): 92%; % O2 consumption ([8]; 20 μM): 90%; decrease in the MMP ([8]; 50 µM): 10%; % MMP ([8]; 50 μM): 90%; % O2 consumption ([8]; 50 μM): 92%; % MMP ([8]; 50 μM, listed as olanzapine): mild dissipation of the membrane potential
CCC1(c2ccccc2)C(=O)NC(=O)NC1=O [Phenobarbital] |  | > 100 |  |  |  |  |  |  |  |  | > 100 |  |  |  | AC50 [3, 20]: > 100 µM; AC50 ([3]; HepG2, read-out: AC50 ECAR): > 100 µM; AC50 ([3]; HepG2, read-out: AC50 OCR): > 100 µM; AC50 [3, 21]: > 100 µM; AC50 [3, 22]: > 100 µM
O=C1NC(=O)C(c2ccccc2)(c2ccccc2)N1 [Phenytoin] | 30000 | > 200 |  | 197 | 90.9 | 1.45 | > 200 | > 200 | > 200 | 26.6 | > 200 |  | > 200 |  | minimal effective concentration [3, 10]: 138 µM
CCC1(c2ccccc2)C(=O)NCNC1=O [Primidone] |  | > 100 |  |  |  |  | > 100 | > 100 | > 100 | > 100 | > 100 |  | > 100 |  | 
OCCOCCN1CCN(C2=Nc3ccccc3Sc3ccccc32)CC1 [Quetiapine] | 1880 | 79 | 57.7 | 92.3 | 19 | 26.1 | > 150 |  | > 150 | 124 | 76.7 |  |  | 49.3 | AC50 [7]: > 150 µM
COC(=O)[C@H]1[C@H]2C[C@@H]3c4[nH]c5cc(OC)ccc5c4CCN3C[C@H]2C[C@@H](OC(=O)c2cc(OC)c(OC)c(OC)c2)[C@@H]1OC [Reserpine] | 0.4 | 79 | 19 | 59.4 | 60.3 |  | 77.3 |  | > 100 |  | 48.9 | 30 | 36.8 | 6.68 | 
C=C(C)[C@H]1Cc2c(ccc3c2O[C@@H]2COc4cc(OC)c(OC)cc4[C@@H]2C3=O)O1 [Rotenone] |  | 0.00605 | 0.002 |  |  |  |  |  |  |  | 27.8 |  |  | 0.29 | AC50 [7]: 0.0071 µM; AC50 [3, 20]: 0.0459 µM; AC50 ([3]; HepG2, read-out: AC50 ECAR): > 1 µM; AC50 ([3]; HepG2, read-out: AC50 OCR): 0.0433 µM; AC50 [3, 21]: 0.213 µM; AC50 [3, 22]: 0.0106 µM; minimal effective concentration ([3]; HepG2, read-out: MEC ATP Production): 0.0159 µM; minimal effective concentration ([3]; HepG2, read-out: MEC ECAR): 0.0274 µM; minimal effective concentration ([3]; HepG2, read-out: MEC OCR): 0.0053 µM; minimal effective concentration ([3]; HepG2, read-out: MEC Proton Leak): 0.012 µM; minimal effective concentration ([3]; HepG2, read-out: MEC Reserve Capacity): < 0.003 µM
C=CC(N)CCC(=O)O (stereo not drawn) [Vigabatrin] | 4000 | > 1000 |  |  |  |  | > 1000 | > 1000 | > 1000 | > 1000 | > 1000 |  | > 1000 |  | 
O=C1Cc2cc(CCN3CCN(c4nsc5ccccc45)CC3)c(Cl)cc2N1 [Ziprasidone] | 110 | > 40 | 28.3 | 0.95 |  |  | > 12.7 |  |  |  |  | 0.12 | 2.19 |  | IC50 ([4]; pig brain mitochondria): 188 µM; IC50 ([5]; pig brain mitochondria): 86 µM
